How the values were obtained:
[1] = test system: p21 induction in HCT 116 cells; assay: p21 induction in cells (in-cell western, p21/GAPDH ratio); type: cell-based; details: Homo sapiens; HCT 116 colon carcinoma cell line, 24 h compound incubation; percent activation vs internal reference WRN inhibitor; read-out: P21_EC50
Procedure: The colon carcinoma cell line HCT 116 was obtained from ATCC and cultured in growth medium consisting of Mccoy's 5A Medium (Gibco 16600108) supplemented with […] (Transgene FS201-02) and 100 units/mL penicillin-streptomycin (Gibco 15140122) and maintained at 37° C. under […]. On the day of seeding, 2,000 cells in 30 μL of culture media were plated per well to Poly-D-Lysine 384 Well Black Clear Plates (Biocoat 356663) and incubated overnight at 37° C. under 5% CO2. The following day, compounds were serially diluted in DMSO for a total of 11 test concentrations. The typical starting concentration of cpds was 10 μM with 2-fold dilutions. Next, 150 nL of diluted compound was added in duplicate to the assay plate, using an Echo 655 (Labcyte). The plate was centrifuged at 500 RPM for 1 min and then incubated at 37° C. under 5% CO2 for 24 h. After 24 h, medium was removed, and cells were fixed by adding 40 µL of 4% paraformaldehyde solution to each well and incubated for 20 min at room temperature. The plate was then washed 4 times with 100 μL per well of wash buffer (PBS with 0.1% Tween-20) using a microplate washer. Next, 30 μL of ice-cold methanol was added to each well and the plate was incubated at −20° C. for 10 min. The plate was washed 4 times with 100 μL per well of wash buffer by a microplate washer, then 30 μL per well of blocking buffer (Intercept PBS blocking buffer (LI-COR 927-70001) with 0.05% Tween-20) was added and the plate was incubated at room temperature with shaking for 2 h. Next, to each test well, 20 μL of primary antibody solution (p21 Waf1/CIP (12D1) Rabbit mAb (Cell Signaling Technologies 2947) diluted 1:1000 and GAPDH (D4C6R) Mouse mAb (Cell Signaling Technologies 97166) diluted 1:2000 in blocking buffer) was added and the plate was placed at 4° C., overnight. The following day, the plate was washed 5 times with 100 μL per well of wash buffer using a microplate washer for 5 min. 20 μL per well of secondary antibody (IRDye 680CW Goat anti-Mouse IgG (H+L) (LI-COR 926-68070) diluted 1: 2000 in Blocking Buffer and IRDye 800CW Goat anti-Rabbit IgG (H+L) (LI-COR 926-32211) diluted 1: 2000 in Blocking Buffer) was then added and the plate was stored for 2 h in the dark at room temperature with shaking. The plate was then washed 4 times with 100 μL per well of wash buffer again using a microplate washer. Finally, the p21 signal and the GAPDH signal were quantified using a LI-COR Odyssey CLx Imager machine reading at 800 nm and 700 nm, respectively. Each plate contained DMSO control (low control) and an internal reference WRN inhibitor (high control) respectively. For quantitation, the 800 nm/700 nm ratio was calculated for each well to give fold p21 induction and then percent activation for each compound well was calculated as follows (100×(ratio cpd well-ratio low control)/(ratio high control−ratio low control)). EC50 values for each compound were generated after non-linear regression curve fitting using commercially available software.

[2] = biological target: T1, human Werner helicase (WRN-BV08, amino acids 517-1235 with L1074F point mutation) (Homo sapiens, UniProt Q14191, L1074F); assay: ADP-Glo WRN helicase ATPase inhibition assay; type: biochemical; details: 0.15 nM WRN, 5 μM ATP, 0.1 nM DNA duplex; 15 minutes preincubation, 60 minutes at 25° C.; read-out: ADP-Glo_hWRN_IC50
T1 construct: [pFastBac1-WRN-(517-1235 L1074F)-TEV-8His]; 8xHis (C, cleaved yes); TEV cleavage site (ENLYFQG) (C); made in house; host or cells: Sf9 insect cells (baculovirus, pFastBac)
T1 sequence (Q14191 with tags, fused parts or gaps L1074F): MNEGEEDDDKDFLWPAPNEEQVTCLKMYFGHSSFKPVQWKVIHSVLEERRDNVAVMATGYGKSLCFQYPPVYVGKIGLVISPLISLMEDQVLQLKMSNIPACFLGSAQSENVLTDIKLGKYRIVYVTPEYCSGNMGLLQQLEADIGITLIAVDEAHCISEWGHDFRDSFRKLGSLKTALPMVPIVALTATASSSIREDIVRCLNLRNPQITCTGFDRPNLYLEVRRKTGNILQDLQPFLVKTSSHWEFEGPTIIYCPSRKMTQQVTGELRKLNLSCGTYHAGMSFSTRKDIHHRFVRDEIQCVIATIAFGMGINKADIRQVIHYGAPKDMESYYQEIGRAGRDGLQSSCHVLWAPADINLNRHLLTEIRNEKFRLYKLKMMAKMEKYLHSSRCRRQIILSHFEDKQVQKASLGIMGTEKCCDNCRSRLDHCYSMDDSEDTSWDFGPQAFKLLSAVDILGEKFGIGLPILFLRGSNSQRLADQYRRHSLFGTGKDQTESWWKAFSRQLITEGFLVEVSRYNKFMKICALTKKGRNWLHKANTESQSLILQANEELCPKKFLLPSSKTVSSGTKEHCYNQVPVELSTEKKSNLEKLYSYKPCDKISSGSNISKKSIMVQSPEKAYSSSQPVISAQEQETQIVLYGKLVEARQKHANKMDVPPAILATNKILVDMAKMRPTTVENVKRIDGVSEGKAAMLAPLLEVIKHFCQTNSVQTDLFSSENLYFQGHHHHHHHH
Source text: Bovine skin gelatin (BSG), dimethyl sulfoxide (DMSO), Pluronic F-127 and tris(2-carboxyethyl)phosphine hydrochloride solution (TCEP) were purchased from Sigma-Aldrich (St. Louis, MO) at the highest level of purity possible. Bicine buffer solution was purchased from Alfa Aesar (Tewksbury, MA) and compound NSC-617145 was purchased from Tocris (Minneapolis, MN). DNA duplex was synthesized at BGI (Shenzhen, China) and was composed of strand 1 with the sequence 5′-[…]-3′ (SEQ ID NO.: 1) and strand 2 with the sequence 5′-[…]-3′ (SEQ ID NO.: 2). DNA strands were annealed by heating to 95° C. for 5 minutes followed by slow cooling to room temperature. Compounds in 100% DMSO (0.1 μl) were spotted into a 384-well white polystyrene Optiplate-384 (Perkin Elmer; Waltham, MA) assay plate using a LabCyte Echo 550 (Agilent; Santa Clara, CA). DMSO (0.1 μl) was added to columns 12, rows A-H and column 24, rows I-P for the maximum signal control. Compound NSC-617145 (0.1 μl) was added to columns 12, rows I-P and 24, rows A-H for the minimum signal control (100% inhibition). Compounds/DMSO were preincubated for 15 minutes at 25° C. with 5 μl 2×WRN (BV08), prepared as described below, in assay buffer containing 20 mM Bicine (pH=7.5), 1 mM MgCl2, 10 mM KCl, 0.1% Pluronic F-127, 0.005% BSG, 1 mM TCEP. The reaction was initiated by the addition of 5 μl 2× substrate mixture in assay buffer and incubated for 60 minutes at 25° C. The final concentrations of the assay components were 0.15 nM WRN, 5 μM ATP, and 0.1 nM DNA duplex. The final DMSO concentration was 1% and the reference compound concentration (NSC-617145) used for the minimal signal control was 20 μM. The reaction was stopped by the addition of the ADP-Glo Kit components (Promega; Madison, WI) as directed and the relative luminescence units (RLU) were read on an Envision 2104 (Perkin Elmer; Waltham, MA). % inhibition calculation:
Where RLU=relative luminescence units, sample=signal in sample well, and MIN and MAX are the respective minimum and maximum signal controls.
Four-Parameter IC50 Fit Equation:
Where top and bottom are normally allowed to float but may be fixed at 100 or 0 respectively in a 3-parameter fit. Y is the % inhibition and X is the compound concentration.
Molecular Biology and virus production. The DNA encoding human Werner helicase (Uniprot Q14191, amino acids 517-1235 with L1074F point mutation) was generated with codon-optimization for E. coli expression and subcloned into the pFastBac vector with a TEV cleavable 8×His tag (SEQ ID NO: 5) (WRN-BV08). The baculovirus from the expression plasmid WRN-BV08 was generated from transfection and amplification following the manufacturer's instructions.
Sf9 cells grown in SF900II media were infected with 1:200 WRN-BV08 P2 virus and incubated for protein expression for 72 h at 27° C. The WRN protein was purified using the following protocol. The cell pellets were thawed and resuspended in buffer A (50 mM Tris, pH 7.5, 500 mM NaCl, 1 mM TCEP, 10% Glycerol) supplemented with 0.5% CHAPS, 1 mM PMSF, […] Leupeptin, 1 μg/ml Pepstatin, and the Pierce Universal Nuclease and cocktail tablet. Cleared lysates were loaded onto a Ni Sepharose™ excel column and washed with buffer A and bound protein was eluted with buffer A supplemented with 300 mM imidazole. The eluted protein was dialyzed against buffer A and digested by His-tagged TEV (1:5 ratio) overnight at 4° C. ZnCl2 was added into the sample at final 15 μM before loading onto a second Ni Sepharose™ excel column. Untagged WRN protein was eluted from the column with buffer A supplemented with 20 mM imidazole, dialyzed overnight into buffer B (50 mM Tris, pH 7.5, 1 mM TCEP, 10% Glycerol) supplemented with 150 mM NaCl and loaded onto a Heparin column. Proteins were eluted with a step gradient of buffer B supplemented with 150 mM, 200 mM, 300 mM and 500 mM NaCl. […]

## COc1cc(-n2nc3c(=O)c(N4CCN(C(=O)c5ncnc(C)c5O)[C@H]5CC[C@@H]54)c4n(c3n2)[C@H](C(=O)Nc2ccc(C(F)(F)F)cc2F)C[C@H]4C)ccn1 (single isomer, unassigned) [Compound I-16]
[1]
  EC50: 500 to 2000 nM
[2]
  IC50: 100 to 500 nM

## COc1cc(-n2nc3c(=O)c(N4CCN(C(=O)c5ncnc(C)c5O)[C@H]5CC[C@@H]54)c4n(c3n2)[C@@H](C(=O)Nc2ccc(C(F)(F)F)cc2Cl)C[C@H]4C)ccn1 (single isomer, unassigned) [Compound I-5]
[1]
  EC50: ≤ 500 nM
[2]
  IC50: ≤ 5 nM

## Cc1ncnc(C(=O)N2CCN(c3c4n(c5nn(C6CC6)nc5c3=O)[C@H](C(=O)Nc3ccc(C(F)(F)F)cc3Cl)C[C@@H]4C)[C@H]3CC[C@@H]32)c1O (single isomer, unassigned) [Compound I-22]
[1]
  EC50: > 5000 nM
[2]
  IC50: 100 to 500 nM

## COc1cc(-n2nc3c(=O)c(N4CCN(C(=O)c5ncnc(C)c5O)[C@H]5CC[C@@H]54)c4n(c3n2)[C@@H](C(=O)Nc2ccc(C(F)(F)F)cc2F)C[C@H]4C)ccn1 (single isomer, unassigned) [Compound I-10]
[1]
  EC50: 2000 to 5000 nM
[2]
  IC50: 100 to 500 nM

## Cc1ncnc(C(=O)N2CCN(c3c4n(c5nn(C6=CCOCC6)nc5c3=O)[C@H](C(=O)Nc3ccc(C(F)(F)F)cc3Cl)C[C@H]4C)[C@H]3CC[C@@H]32)c1O (single isomer, unassigned) [Compound I-25]
[1]
  EC50: > 5000 nM
[2]
  IC50: > 500 nM

## Cc1ncnc(C(=O)N2CCN(c3c4n(c5nn(C6=CCOCC6)nc5c3=O)[C@H](C(=O)Nc3ccc(C(F)(F)F)cc3Cl)C[C@@H]4C)[C@H]3CC[C@@H]32)c1O (single isomer, unassigned) [Compound I-24]
[1]
  EC50: > 5000 nM
[2]
  IC50: > 500 nM

## COc1cc(-n2nc3c(=O)c(N4CCN(C(=O)c5ncnc(C)c5O)[C@H]5CC[C@@H]54)c4n(c3n2)[C@H](C(=O)Nc2ccc(C(F)(F)F)cc2F)C[C@@H]4C)ccn1 (single isomer, unassigned) [Compound I-6]
[1]
  EC50: ≤ 500 nM
[2]
  IC50: ≤ 5 nM

## Cc1nc2c(=O)c(N3CCN(C(=O)c4ncnc(C)c4O)[C@H]4CC[C@@H]43)c3n(c2nc1C)[C@H](C(=O)Nc1ccc(C(F)(F)F)cc1Cl)C[C@@H]3C (single isomer, unassigned) [Compound I-18]
[1]
  EC50: ≤ 500 nM
[2]
  IC50: ≤ 5 nM

## Cc1ncnc(C(=O)N2CCN(c3c4n(c5nn(C6=CCOCC6)nc5c3=O)[C@@H](C(=O)Nc3ccc(C(F)(F)F)cc3Cl)C[C@H]4C)[C@H]3CC[C@@H]32)c1O (single isomer, unassigned) [Compound I-23]
[1]
  EC50: ≤ 500 nM
[2]
  IC50: ≤ 5 nM

## Cc1cnc2c(n1)c(=O)c(N1CCN(C(=O)c3ncnc(C)c3O)[C@H]3CC[C@@H]31)c1n2[C@@H](C(=O)Nc2ccc(C(F)(F)F)cc2Cl)C[C@H]1C (single isomer, unassigned) [Compound I-8]
[1]
  EC50: > 5000 nM
[2]
  IC50: 100 to 500 nM

## COc1cc(-n2nc3c(=O)c(N4CCN(C(=O)c5ncnc(C)c5O)[C@H]5CC[C@@H]54)c4n(c3n2)[C@H](C(=O)Nc2ccc(C(F)(F)F)cc2Cl)C[C@@H]4C)ccn1 (single isomer, unassigned) [Compound I-9]
[1]
  EC50: 500 to 2000 nM
[2]
  IC50: 100 to 500 nM

## Cc1nc2c(=O)c(N3CCN(C(=O)c4ncnc(C)c4O)[C@H]4CC[C@@H]43)c3n(c2nc1C)[C@@H](C(=O)Nc1ccc(C(F)(F)F)cc1Cl)C[C@@H]3C (single isomer, unassigned) [Compound I-17]
[1]
  EC50: ≤ 500 nM
[2]
  IC50: ≤ 5 nM

## Cc1cnc2c(n1)c(=O)c(N1CCN(C(=O)c3ncnc(C)c3O)[C@H]3CC[C@@H]31)c1n2[C@H](C(=O)Nc2ccc(C(F)(F)F)cc2Cl)C[C@H]1C (single isomer, unassigned) [Compound I-11]
[1]
  EC50: ≤ 500 nM
[2]
  IC50: ≤ 5 nM

## Cc1cnc2c(n1)c(=O)c(N1CCN(C(=O)c3ncnc(C)c3O)[C@H]3CC[C@@H]31)c1n2[C@H](C(=O)Nc2ccc(C(F)(F)F)cc2Cl)C[C@@H]1C (single isomer, unassigned) [Compound I-7]
[1]
  EC50: ≤ 500 nM
[2]
  IC50: ≤ 5 nM

## Cc1nc2c(=O)c(N3CCN(C(=O)c4ncnc(C)c4O)[C@H]4CC[C@@H]43)c3n(c2nc1C)[C@@H](C(=O)Nc1ccc2c(c1Cl)OC(F)(F)O2)C[C@H]3C [Compound I-26, (7R,9R)—N-(4-chloro-2,2-difluoro-2H-1,3-benzodioxol-5-yl)-6-[(1S,6S)-5-(5-hydroxy-6-methylpyrimidine-4-carbonyl)-2,5-diazabicyclo[4.2.0]octan-2-yl]-2,3,7-trimethyl-5-oxo-5H,7H,8H,9H-pyrazino[2,3-e]indolizine-9-carboxamide]
[1]
  EC50: ≤ 500 nM

## COc1cc(-n2nc3c(=O)c(N4CCN(C(=O)c5ncnc(C)c5O)[C@H]5CC[C@@H]54)c4n(c3n2)[C@H](C(=O)Nc2ccc(C(F)(F)F)cc2Cl)C[C@H]4C)ccn1 (single isomer, unassigned) [Compound I-13]
[2]
  IC50: ≤ 5 nM

Reference: patent publication US20250368646A1, “TRICYCLIC FUSED WRN INHIBITORS” (Nimbus Wadjet, Inc., priority 2024, published 2025)
